According to PubChem BioAssay AID1963973 (Molecular Pharmacology Branch, DTP, NCI, 2024):
pIC50: −log10 of the molar value. Values joined by “and” are separate entries in the source; they are usually repeats but may differ in a detail not shown here. Equal entries are not always repeated.

System: 883617-216-R-J1-PDC tumor spheroids, viability
Assay: Anticancer human tumor 883617-216-R-J1-PDC patient-derived bladder carcinoma cell line growth inhibition [PI3K]
Details: spheroids with HUVEC and MSC; for viability, T/C: stronger effect = lower value
Procedure, shortened: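 Targeted small molecules plus PI3K inhibitors, half-log dose series from Cmax (default top 10 microM), were applied to heterotypic spheroids of cancer cells with HUVEC and MSCs. Viability indicated growth inhibition.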

[1] = curve of first compound, second compound 0.0316 µM
[2] = curve of first compound, second compound 0.1 µM
[3] = curve of first compound, second compound 0.316 µM
[4] = curve of first compound, second compound 1 µM
[5] = curve of first compound, second compound 3.16 µM
[6] = curve of first compound, second compound 10 µM
[7] = second compound 0.0316 µM, first compound 0.0316 µM
[8] = second compound 0.0316 µM, first compound 0.1 µM
[9] = second compound 0.1 µM, first compound 0.0316 µM
[10] = second compound 0.1 µM, first compound 0.1 µM
[11] = second compound 0.316 µM, first compound 0.0316 µM
[12] = second compound 0.316 µM, first compound 0.1 µM
[13] = second compound 1 µM, first compound 0.0316 µM
[14] = second compound 1 µM, first compound 0.1 µM
[15] = second compound 3.16 µM, first compound 0.0316 µM
[16] = second compound 3.16 µM, first compound 0.1 µM
[17] = second compound 10 µM, first compound 0.0316 µM
[18] = second compound 10 µM, first compound 0.1 µM
[19] = second compound 0.0316 µM, first compound 0.316 µM
[20] = second compound 0.0316 µM, first compound 1 µM
[21] = second compound 0.0316 µM, first compound 3.16 µM
[22] = second compound 0.0316 µM, first compound 10 µM
[23] = second compound 0.1 µM, first compound 0.316 µM
[24] = second compound 0.1 µM, first compound 1 µM
[25] = second compound 0.1 µM, first compound 3.16 µM
[26] = second compound 0.1 µM, first compound 10 µM
[27] = second compound 0.316 µM, first compound 0.316 µM
[28] = second compound 0.316 µM, first compound 1 µM
[29] = second compound 0.316 µM, first compound 3.16 µM
[30] = second compound 0.316 µM, first compound 10 µM
[31] = second compound 1 µM, first compound 0.316 µM
[32] = second compound 1 µM, first compound 1 µM
[33] = second compound 1 µM, first compound 3.16 µM
[34] = second compound 1 µM, first compound 10 µM
[35] = second compound 3.16 µM, first compound 0.316 µM
[36] = second compound 3.16 µM, first compound 1 µM
[37] = second compound 3.16 µM, first compound 3.16 µM
[38] = second compound 3.16 µM, first compound 10 µM
[39] = second compound 10 µM, first compound 0.316 µM
[40] = second compound 10 µM, first compound 1 µM
[41] = second compound 10 µM, first compound 3.16 µM
[42] = second compound 10 µM, first compound 10 µM
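Further: spheroids exposed to agents for 7 days before the viability read.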

With CC(=O)c1c(C)c2cnc(Nc3ccc(N4CCNCC4)cn3)nc2n(C2CCCC2)c1=O + Cc1nc(NC(=O)N2CCCC2C(N)=O)sc1-c1ccnc(C(C)(C)C(F)(F)F)c1 the pIC50 [1] was under 7.00, the pIC50 [2] was 7.63 and the pIC50 [3] was over 9.50. It also gave a pIC50 [4] of over 9.50, a pIC50 [5] of over 9.50 and a pIC50 [6] of over 9.50. It also gave a viability, T/C (second compound 0.0316 µM, first compound 0.000316 µM) of 81%, a viability, T/C (second compound 0.0316 µM, first compound 0.001 µM) of 70.3% and a viability, T/C (second compound 0.0316 µM, first compound 0.00316 µM) of 82.5%. It also gave a viability, T/C (second compound 0.0316 µM, first compound 0.01 µM) of 68.1%, a viability, T/C [7] of 58.7% and a viability, T/C [8] of 50.3%. It also gave a viability, T/C (second compound 0.1 µM, first compound 0.000316 µM) of 65.4%, a viability, T/C (second compound 0.1 µM, first compound 0.001 µM) of 63.5% and a viability, T/C (second compound 0.1 µM, first compound 0.00316 µM) of 62.8%. For the same molecule, the viability, T/C (second compound 0.1 µM, first compound 0.01 µM) was 57.8%, the viability, T/C [9] was 47.4% and the viability, T/C [10] was 37.6%. The viability, T/C (second compound 0.316 µM, first compound 0.000316 µM) was 47.7%, the viability, T/C (second compound 0.316 µM, first compound 0.001 µM) was 43.8% and the viability, T/C (second compound 0.316 µM, first compound 0.00316 µM) was 33%. It also gave a viability, T/C (second compound 0.316 µM, first compound 0.01 µM) of 43.2%, a viability, T/C [11] of 34.5% and a viability, T/C [12] of 26.3%. The viability, T/C (second compound 1 µM, first compound 0.000316 µM) was 26.7%, the viability, T/C (second compound 1 µM, first compound 0.001 µM) was 31.5% and the viability, T/C (second compound 1 µM, first compound 0.00316 µM) was 25.7%. For the same molecule, the viability, T/C (second compound 1 µM, first compound 0.01 µM) was 23.3%, the viability, T/C [13] was 21.1% and the viability, T/C [14] was 17.2%. It also gave a viability, T/C (second compound 3.16 µM, first compound 0.000316 µM) of 12.9%, a viability, T/C (second compound 3.16 µM, first compound 0.001 µM) of 11.8% and a viability, T/C (second compound 3.16 µM, first compound 0.00316 µM) of 13.6%. The viability, T/C (second compound 3.16 µM, first compound 0.01 µM) was 14.4%, the viability, T/C [15] was 11.7% and the viability, T/C [16] was 11.6%. For the same molecule, the viability, T/C (second compound 10 µM, first compound 0.000316 µM) was 8.2%, the viability, T/C (second compound 10 µM, first compound 0.001 µM) was 6.55% and the viability, T/C (second compound 10 µM, first compound 0.00316 µM) was 6.27%. For the same molecule, the viability, T/C (second compound 10 µM, first compound 0.01 µM) was 7.44%, the viability, T/C [17] was 6.18% and the viability, T/C [18] was 5.86%.
For CC(=O)c1c(C)c2cnc(Nc3ccc(N4CCNCC4)cn3)nc2n(C2CCCC2)c1=O, the viability, T/C (compound 0.000316 µM) was 109% [middle of 4 runs], the viability, T/C (compound 0.001 µM) was 91.3% [middle of 4 runs] and the viability, T/C (compound 0.00316 µM) was 76.6% [middle of 4 runs]. The viability, T/C (compound 0.01 µM) was 87.7% [middle of 4 runs], the viability, T/C (compound 0.0316 µM) was 71.2% [middle of 4 runs] and the viability, T/C (compound 0.1 µM) was 47.9% [middle of 4 runs]. The pIC50 (curve of compound) was 7.01 and < 7.00 and 7.10.
Work on Cn1ncc(Cl)c1-c1cc(C(=O)NC(CN)Cc2cccc(F)c2)sc1Cl (stereo not given) + Cc1nc(NC(=O)N2CCCC2C(N)=O)sc1-c1ccnc(C(C)(C)C(F)(F)F)c1 yielded a pIC50 [1] of 6.60, a pIC50 [2] of 6.63 and a pIC50 [3] of over 7.50. The pIC50 [4] was over 7.50, the pIC50 [5] was over 7.50 and the pIC50 [6] was over 7.50. It also gave a viability, T/C [7] of 88.3%, a viability, T/C [8] of 67.7% and a viability, T/C [19] of 45.5%. For the same molecule, the viability, T/C [20] was 26.1%, the viability, T/C [21] was 11.8% and the viability, T/C [22] was 5.02%. It also gave a viability, T/C [9] of 75%, a viability, T/C [10] of 67.1% and a viability, T/C [23] of 42.7%. It also gave a viability, T/C [24] of 25%, a viability, T/C [25] of 11.1% and a viability, T/C [26] of 4.24%. For the same molecule, the viability, T/C [11] was 42.6%, the viability, T/C [12] was 41.6% and the viability, T/C [27] was 34.4%. The viability, T/C [28] was 18.6%, the viability, T/C [29] was 8.47% and the viability, T/C [30] was 2.6%. It also gave a viability, T/C [13] of 29.2%, a viability, T/C [14] of 30.8% and a viability, T/C [31] of 20.7%. For the same molecule, the viability, T/C [32] was 13.9%, the viability, T/C [33] was 7.58% and the viability, T/C [34] was 2.44%. For the same molecule, the viability, T/C [15] was 15.4%, the viability, T/C [16] was 13.4% and the viability, T/C [35] was 12.4%. It also gave a viability, T/C [36] of 8.34%, a viability, T/C [37] of 5.31% and a viability, T/C [38] of 1.74%. For the same molecule, the viability, T/C [17] was 9.56%, the viability, T/C [18] was 7.78% and the viability, T/C [39] was 5.02%. The viability, T/C [40] was 5.6%, the viability, T/C [41] was 3.31% and the viability, T/C [42] was 0.93%.
With C#Cc1c(F)ccc2cc(O)cc(-c3ncc4c(N5CC6CCC(C5)N6)nc(OCC56CCCN5CC(F)C6)nc4c3F)c12 (stereo not given) the viability, T/C (compound 0.0316 µM) was 99.5% [middle of 4 runs], the viability, T/C (compound 0.1 µM) was 95.7% [middle of 4 runs] and the viability, T/C (compound 0.316 µM) was 100% [middle of 4 runs]. For the same molecule, the viability, T/C (compound 1 µM) was 88% [middle of 4 runs], the viability, T/C (compound 3.16 µM) was 80.5% (2×) and 102% and 88.1% and the viability, T/C (compound 10 µM) was 65.8% [middle of 4 runs]. It also gave a pIC50 (curve of compound) of under 5.00.
Cn1nccc1Nc1nccc(-c2ccn(C(CO)c3ccc(Cl)c(F)c3)c(=O)c2)n1 (stereo not given) + CC(Nc1ncnc2nc[nH]c12)c1cc2cccc(Cl)c2c(=O)n1-c1ccccc1 showed a pIC50 [1] of 5.10, a pIC50 [2] of 5.28 and a pIC50 [3] of 5.13. The pIC50 [4] was 5.38, the pIC50 [5] was 6.12 and the pIC50 [6] was over 7.50. It also gave a viability, T/C [7] of 100%, a viability, T/C [8] of 90.3% and a viability, T/C [19] of 72.5%. It also gave a viability, T/C [20] of 67.4%, a viability, T/C [21] of 66.5% and a viability, T/C [22] of 43.5%. The viability, T/C [9] was 87.3%, the viability, T/C [10] was 86.8% and the viability, T/C [23] was 70.1%. The viability, T/C [24] was 62.6%, the viability, T/C [25] was 65.3% and the viability, T/C [26] was 38.6%. For the same molecule, the viability, T/C [11] was 88.4%, the viability, T/C [12] was 71.2% and the viability, T/C [27] was 71.2%. For the same molecule, the viability, T/C [28] was 66.8%, the viability, T/C [29] was 64% and the viability, T/C [30] was 44%. The viability, T/C [13] was 77.9%, the viability, T/C [14] was 74.6% and the viability, T/C [31] was 64.5%. For the same molecule, the viability, T/C [32] was 61%, the viability, T/C [33] was 52% and the viability, T/C [34] was 43.6%. The viability, T/C [15] was 63.7%, the viability, T/C [16] was 69.5% and the viability, T/C [35] was 50%. The viability, T/C [36] was 50.3%, the viability, T/C [37] was 37.2% and the viability, T/C [38] was 24.9%. It also gave a viability, T/C [17] of 46.7%, a viability, T/C [18] of 40.9% and a viability, T/C [39] of 35.7%. The viability, T/C [40] was 31.4%, the viability, T/C [41] was 29.5% and the viability, T/C [42] was 22.2%.
